Test system: thermostable β-glucosidase AR19G-228-1 (GH family 1), SEQ ID NO: 2, from hot spring soil metagenome AR19, expressed in E. coli
Test: Kinetics of PNPG hydrolysis by AR19G-228-1 β-glucosidase
Type: biochemical
Conditions: 100° C., acetate buffer pH 5.5
From the text: The β-glucosidase activity using PNPG as a substrate of the enzyme protein (AR19G-228-1) encoded by the AR19G-228-1 gene was investigated. A solution prepared by dissolving PNPG (manufactured by Sigma-Aldrich Co. LLC.) in water and adjusting to a predetermined final concentration was used as the substrate solution. It should be noted that the PNPG substrate solutions used in the experiments described below all used the PNPG aqueous solution prepared by the above method. PNPG (manufactured by Sigma-Aldrich Co. LLC.) was used as the substrate for measuring the β-glucosidase activity. In the measurements, the purified enzyme obtained in section <7> above was diluted to a concentration of 0.0075 mg/mL with 0.05 M Tris-HCl buffer (pH 8.0) and used.
For the reaction at a temperature of 50 to 90° C., a Thermomixer (manufactured by the Eppendorf AG) was used, a sample tube with a volume of 1.5 mL was used as a reaction vessel, and the amount of reaction solution was set to 200 μL. The reaction solution was composed of 5 μL of diluted purified enzyme, 45 μL of purified water, 50 μL of 200 mM acetate buffer (pH 5.5), and 100 μL of 60 mM PNPG aqueous solution. […]
In all measurements, a mixed solution prepared by replacing the purified enzyme solution with 50 mM Tris-HCl buffer (pH 8.0) and then reacting the solution under the same conditions was used as a control. […] The amount of p-nitrophenol in the supernatant was determined by measuring the absorbance at 420 nm using a spectrophotometer, calculating the amount of p-nitrophenol in the supernatant using a calibration curve prepared with p-nitrophenol, and then determining the amount of p-nitrophenol produced by the enzymatic hydrolysis by the difference from the control. […] In addition, each measurement was performed for three independent experiments, and a mean value and a standard error were determined. […]

O=[N+]([O-])c1ccc(O[C@@H]2O[C@H](CO)[C@@H](O)[C@H](O)[C@H]2O)cc1 [PNPG, p-nitrophenyl-β-D-glucopyranoside]
Km (PNPG 0.5-100 mM): 4.5 mM
Vmax (PNPG 0.5-100 mM): 430.3 U/mg
Kcat/Km (PNPG, calculated from Vmax and Km): 91500 M⁻¹ s⁻¹

— US9512414B2, “Thermostable beta-glucosidase” (HONDA MOTOR CO., LTD., priority 2014, dated 2016)
